Each structure is given as a SMILES string. Where two headings read alike, the source gives them in different places.

Series [1] deals with M. tuberculosis in THP-1 macrophage. It counts as cell-based, Mycobacterium tuberculosis.
The subject of series [2] is Mycobacterium tuberculosis.
Another series has as its system THP-1 macrophages. The experiment in a line: Cytotoxic effect on THP-1 macrophages, fluorescence microscopy after DAPI staining. The following applies: 100 µM; images after 10th day of inhibitor treatment; compared with untreated control. In kind it is cell-based, Human. The procedure: THP-1 macrophage cells were grown on cover slip in 8 well microplates and washed twice with chilled methanol followed by staining with 4', 6-diamidino-2-phenylindole (DAPI) at final concentration of 300 nM. Macrophage cells were kept for 15 min at room temperature under dark condition. After incubation, cells were washed three times with distilled water and analyzed under the fluorescence microscope (Leitz Wetzlar model, Germany) at 350 nm excitation and 450 nm emission wavelengths (400 X) using 'A'filter.
To investigate the host THP-1 macrophage cells condition due to its exposure to p-HMB inhibitor before considering its effective and specific inhibition of bacilli in macrophage infection models, fluorescence microscopic picture of THP-1 cells treated with p-HMB (100 µM) was compared with the untreated control after staining with DAPI(4',6-diamidino-2-phenylindole). Fluorescence images were taken after 10th day of inhibitor treatment.

As to `[N-]=[N+]=[N-]` [Azide], the “decrease in intracellular viable cell count (log difference compared to control)” value in series [1] is on record as approximately 1.5 log.
The same measure, in the same setting: for `CS(=N)(=O)CC[C@H](N)C(=O)O` (stereo partly drawn) [L-MSO, L-methionine sulfoximine] the value was approximately 2.5 log.
For `O=C(O)c1cc[c]([Hg][OH])cc1` [p-HMB, para-hydroxy mercuric benzoate], the “decrease in intracellular viable cell count (log difference compared to control)” value in series [1] ([…], cell counts on 10th day PI, control without inhibitor) was approximately 2 log. Moreover, the “reduction of bacilli count” value in series [1] (summary statement: in-vitro and ex-vivo conditions) was approximately 2 log cfu. In series [2], the “cell count reduced (log difference)” value is on record as approximately 2.5 log and the “inhibition of bacilli grown under ammonia” value was “no inhibition was observed”. The “cytotoxic effect on macrophage (integrity of nuclear structure)” value with THP-1 macrophages is recorded as “without exhibiting any cytotoxic effects on macrophage”.

The values above are taken from patent EP2961847B1, “NITRITE-REDUCTASE (NIRB) AS POTENTIAL ANTI-TUBERCULAR TARGET AND A METHOD TO DETECT THE SEVERITY OF TUBERCULOSIS DISEASE” (priority 2013, dated 2014).
